Test [1] deals with HepG2 cells. The experiment in a line: MTT assay, tBHP-induced cytotoxicity (cytoprotection). The settings on record: SFN 30 M pretreatment, 150 M tBHP. Type of test: cell-based, human. (Tetrazolium assays rely on reduction of a dye to a coloured formazan, in cell work by metabolically active cells.)
The test system of test [2] is ARE (Nrf2), pGL4.37 transfected HepG2 cells. The experiment in a line: ARE-driven luciferase reporter gene assay (Nrf2 transactivation). The format is cell-based, human. The settings on record: SFN 30 M. On the procedure:
To examine the possibility that ARE activation by Nrf2 is associated with HSCF extracts-mediated cytoprotection, pGL4.37 tranfected HepG2 cells (5×10^5 cells/well) were plated in 12-well overnight, serum starved for 12 hrs, and then subsequently exposed to 30-1000 μg/ml HSCF extracts for 18 hrs. ARE-driven luciferase activity was measured in the cell treated with HSCF extracts. […] The relative ARE-luciferase activities were 1.39±0.88, 1.62±1.08, 1.91±1.22, and 3.25±0.88 in […] HSCF extracts treated cells, respectively (FIG. 3).
ARE-driven reporter gene construct, pGL4.37 [luc2P/ARE/Hygro] was obtained from promega (Madison, Wis., USA). HepG2 cells were stably transfected with pGL4.37 plasmid using Fugene HD (Promega, Madison, Wis., USA) according to manufacturer's instruction and 80 µg/mL hygromycin was added to select the resistant colonies. The resistant colonies were pooled and used for reporter gene analysis. […] Luciferase activities in cell lysates were measured by adding luciferase assay reagent (Promega, Madison, Wis., USA) using […] automatic multimode reader (Model Infinite 200 PRO; Tecan, Männedorf, Switzerland). The relative luciferase activity was calculated as the relative change to protein content determined by bicinchoninic acid (BCA) method.

Each structure is given as a SMILES string.

We go through one compound from patent publication US20180185431A1, “HOVENIAE SEMEN CUM FRUCTRUS EXTRACT COMPOSITIONS AND METHOD OF USE” (ARIBIO Co., Ltd., priority 2016, published 2018).

On to `C[S+]([O-])CCCCN=C=S` (centres unmarked) [SFN, Sulforaphane], for which, in test [1], the “protection from tBHP-mediated cell death” value is on record as “significantly protected from tBHP-mediated cell death”. Moreover, the ARE-driven luciferase activity result in test [2] was “significantly increased luciferase activity”.
